What is called Kd is a measure of binding affinity in units of concentration.

The record followed here is patent US8735622B2, “Histone demethylase inhibitors and methods for using the same” (The Regents of the University of Colorado, a body corporate, priority 2011, dated 2014).

For one assay, the target named is T1, GST-JMJD2A(1-420) (Homo sapiens, UniProt O75164).
T1 construct: Recombinant protein preparation of GASC1(1-420), JMJD2A (1-420) and LSD1 (full-length); made in house; host or cells: Escherichia coli BL-21
T1 sequence (O75164 1-420): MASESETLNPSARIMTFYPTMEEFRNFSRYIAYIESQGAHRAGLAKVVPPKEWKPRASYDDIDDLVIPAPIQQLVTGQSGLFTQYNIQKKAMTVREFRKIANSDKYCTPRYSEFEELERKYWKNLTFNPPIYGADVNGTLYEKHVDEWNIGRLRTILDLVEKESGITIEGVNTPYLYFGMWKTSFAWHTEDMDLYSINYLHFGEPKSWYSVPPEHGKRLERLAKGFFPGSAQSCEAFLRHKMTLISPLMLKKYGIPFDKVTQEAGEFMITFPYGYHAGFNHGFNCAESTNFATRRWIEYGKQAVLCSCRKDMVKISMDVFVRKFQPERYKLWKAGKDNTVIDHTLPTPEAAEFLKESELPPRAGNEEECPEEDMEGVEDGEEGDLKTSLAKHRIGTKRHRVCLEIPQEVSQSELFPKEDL
The assay can be described thus: Fluorescence polarization (FP) binding assay, JMJD2A. Particulars: 1 nM fluorophore, 2 h at room temperature, read-out: dissociation constant (Kd) to GST-JMJD2A(1-420). The method, then: (§1) To measure fluorescence polarization, a Perkin Elmer EnVision 2102 Multilabel plate reader equipped with FP-FITC optic module was used. Corning half-area, black, flat-bottom, polystyrene, 96-well plates (cat. #: 3993) were used for all FP studies. Auto-adjustment of focal height and gain was performed in the well containing 80 μL of 1 nM fluorophore 20, the recommended concentration of fluorescein for this plate reader.
(§2) The dissociation constant (Kd) for fluorophore 20 to GST-JMJD2A(1-420) was measured (See FIG. 8) by titrating 20 (1 nM) with purified JMJD2A using protocols reported by Rossi et al. in Nat. Protoc., 2011, 6(3), 365-87. Fluorescence intensity values in parallel (i.e., I11) and perpendicular (i.e., I⊥) planes for each well were measured after 2 h of incubation at room temperature. For each experimental measurement, the protein background was subtracted, and the polarization (P) was calculated using these corrected values of I11 and I⊥ from the equation: P=(I11−G·I⊥)/(I11+G·I⊥), where the G factor is derived from the instrument auto-adjustment step. […] The Kd for 20 and JHDM1A was determined as 30±5 nM in a similar fashion.

The target of the next assay is T2, JHDM1A (Homo sapiens, UniProt Q9Y2K7).
T2 sequence (Q9Y2K7 1-1162): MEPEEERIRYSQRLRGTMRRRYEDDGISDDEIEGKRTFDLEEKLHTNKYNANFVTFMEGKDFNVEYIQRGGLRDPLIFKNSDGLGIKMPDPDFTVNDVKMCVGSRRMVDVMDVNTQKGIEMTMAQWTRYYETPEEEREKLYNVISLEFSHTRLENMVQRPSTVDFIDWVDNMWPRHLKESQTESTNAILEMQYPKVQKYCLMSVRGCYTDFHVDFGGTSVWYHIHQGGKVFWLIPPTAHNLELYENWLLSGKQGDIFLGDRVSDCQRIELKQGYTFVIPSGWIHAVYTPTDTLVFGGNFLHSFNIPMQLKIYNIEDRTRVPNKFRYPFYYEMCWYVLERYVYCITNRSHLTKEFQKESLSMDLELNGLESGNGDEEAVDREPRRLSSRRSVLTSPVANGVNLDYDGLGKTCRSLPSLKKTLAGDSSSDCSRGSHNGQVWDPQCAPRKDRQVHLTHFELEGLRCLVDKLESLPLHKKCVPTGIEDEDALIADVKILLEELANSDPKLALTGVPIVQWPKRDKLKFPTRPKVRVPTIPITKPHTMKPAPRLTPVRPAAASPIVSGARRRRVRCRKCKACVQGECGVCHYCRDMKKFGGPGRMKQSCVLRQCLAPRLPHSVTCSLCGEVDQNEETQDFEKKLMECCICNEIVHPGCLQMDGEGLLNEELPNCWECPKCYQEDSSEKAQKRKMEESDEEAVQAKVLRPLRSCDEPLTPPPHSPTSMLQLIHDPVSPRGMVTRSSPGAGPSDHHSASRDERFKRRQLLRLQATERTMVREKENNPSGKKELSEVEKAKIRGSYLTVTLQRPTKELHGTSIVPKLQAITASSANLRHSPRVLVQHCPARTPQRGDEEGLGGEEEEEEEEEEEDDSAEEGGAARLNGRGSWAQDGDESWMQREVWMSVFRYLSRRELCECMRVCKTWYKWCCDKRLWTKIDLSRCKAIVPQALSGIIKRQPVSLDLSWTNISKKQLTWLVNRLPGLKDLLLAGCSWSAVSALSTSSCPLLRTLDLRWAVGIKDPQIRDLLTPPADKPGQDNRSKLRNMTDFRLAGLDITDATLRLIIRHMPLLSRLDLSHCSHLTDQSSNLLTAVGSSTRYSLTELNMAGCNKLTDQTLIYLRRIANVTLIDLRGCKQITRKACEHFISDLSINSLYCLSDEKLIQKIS
The assay can be described thus: Fluorescence polarization (FP) binding assay, JHDM1A. Particulars: read-out: dissociation constant (Kd) to JHDM1A. The method, then: as §1, §2

Assay [1] has as its system H3K4me3 and H3K9me3 levels in KYSE150 cells. The assay can be described thus: Quantitative immunostaining assay of H3K4me3 and H3K9me3 in KYSE150 cells. It is filed as cell-based, human. The following applies: 2.5 μM, 48 h. The method, then: To quantify the cellular activity of methylstat, a quantitative image-based assay was used. […] The cellular effects of methylstat were also cell type-specific.
For quantified immunostaining experiments, KYSE150 or MCF7 cells were seeded in a 96-well plate at 10,000 cells per well and incubated at 37° C. for 24 hours. The medium was replaced and methylstat in DMSO was added at the concentration as indicated. After incubation for another 48 hours, immunostaining procedure was performed as described above using anti-H3K9me3 or anti-H3K4me3 primary antibody. Fluorescent images of cells were acquired by a Nikon Eclipse 90i fluorescence microscope and analyzed using the Cell Scoring analysis module of MetaMorph 7.0 software.

Assay [2] concerns prolyl hydroxylases (PHDs). The assay can be described thus: Cellular HIF-1α level (prolyl hydroxylase specificity) in MCF7 cells. Type of assay: cell-based, human. Particulars: 24 hours, methylstat up to 15 μM, DFO 150 μM, DMOG 1 and 2 mM. The text has this:
To assess the specificity of methylstat in vivo, another iron(II)- and α-ketoglutarate-dependent dioxygenases, prolyl hydroxylases (PHDs), was examined. PHDs have been reported to regulate normoxic inactivation of hypoxia-inducible factors (HIFs) by hydroxylating specific prolyl residues of HIFs. […] DMOG and DFO have been used to mimic hypoxia conditions by inhibiting PHDs in vivo. […] Similar results were also observed in HeLa cells (see FIG. 7).
Total lysates of cells were generated from the cells lysed in CelLytic M Cell Lysis (Sigma) with protease inhibitor cocktail (Sigma), mixed with 2×LSB buffer (100 mM Tris-HCl pH 6.8, 200 mM DTT, 4% SDS, 20% glycerol and 0.2% bromophenol blue) and boiled for 5 min before SDS-PAGE. BCA assay (Thermo) was applied for protein qualification.

Consider `NCc1ccc(CN(CCCCN(O)C(=O)/C=C/C(=O)O)C(=S)Nc2ccc(C3=C4C=CC(=O)C=C4Cc4cc(O)ccc43)c(C(=O)O)c2)cc1` [Compound 20], for which the Kd at GST-JMJD2A(1-420) turned out to be 175 ± 42 nM; on JHDM1A, 30 ± 5 nM.

On to `COC(=O)C(=O)N(O)CCCCNCc1ccc(COC(=O)Nc2cccc3ccccc23)cc1` [Compound 23a], for which the “cellular activity in H3K4me3- and H3K9me3-immunostaining assays relative to methylstat” value in assay [1] is recorded as “significantly decreased cellular activity”.

`COC(=O)/C=C/C(=O)N(O)CCCC[N+](C)(C)Cc1ccc(COC(=O)Nc2cccc3ccccc23)cc1.[I-]` [Compound 23f]: the “cellular activity in H3K4me3- and H3K9me3-immunostaining assays relative to methylstat” value in assay [1] was “reduced its activity”.

`COC(=O)CNC(=O)C(=O)OC` [DMOG, dimethyl oxalylglycine, reference compound]: the “cellular HIF-1α levels / prolyl hydroxylase inhibition” value in assay [2] is listed as “significantly increased cellular levels of HIF-1α”.

For “deferoxamine mesylate salt [DFO, reference compound]”, the “cellular HIF-1α levels / prolyl hydroxylase inhibition” value in assay [2] is “significantly increased cellular levels of HIF-1α”.
